Data published in patent publication US11680082B2, “Conjugates of montelukast and peptides” (ENLITISA (SHANGHAI) PHARMACEUTICAL CO., LTD, priority 2018, dated 2023).
Counter-ions that a name gives are not always drawn. Non-standard residues stand in square brackets, D forms with d. Residues, ends and D or L forms follow the SMILES beside them. No end group written: not given here. *: point of attachment. X2 = CC(C)(O)c1ccccc1CC[C@@H](SCC1(CC(=O)*)CC1)c1cccc(/C=C/c2ccc3ccc(Cl)cc3n2)c1; Dopa = N[C@@H](Cc1ccc(O)c(O)c1)C(=O)O; Hyp = O=C(O)[C@@H]1C[C@@H](O)CN1

Experiments:
CysLTR1 = target: T1, CysLTR1 (Homo sapiens, UniProt Q9Y271); assay: In vitro CysLTR1 FLIPR antagonist test; assay type: cell-based; conditions: CYSLTR1/HEK293 cell line, Fluo-4 calcium assay
T1 construct: expressed in transfected cells; host or cells: HEK293
T1 sequence (Q9Y271 1-337): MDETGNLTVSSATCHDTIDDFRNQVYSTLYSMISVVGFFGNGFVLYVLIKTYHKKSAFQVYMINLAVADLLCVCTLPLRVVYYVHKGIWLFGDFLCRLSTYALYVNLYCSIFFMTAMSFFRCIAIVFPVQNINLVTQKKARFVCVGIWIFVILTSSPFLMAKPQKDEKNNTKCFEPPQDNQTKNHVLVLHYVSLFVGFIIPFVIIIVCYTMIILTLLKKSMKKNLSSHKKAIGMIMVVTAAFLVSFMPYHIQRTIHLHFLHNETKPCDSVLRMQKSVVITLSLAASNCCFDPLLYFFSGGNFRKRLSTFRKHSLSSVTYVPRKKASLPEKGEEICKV
Experimental: 10 different concentrations were tested in duplicate for each compound.
A CYSLTR1/HEK293 cell line was used. The cells were prepared and 20 μL of the cell suspension were added to the 384-well plates (20K/well; poly-D-Lysine protein coating plate, Greiner #781946). The plate was placed at 37° C. in a 5% CO2 incubator overnight.
A probenecid in FLIPR assay buffer was prepared from the relevant starter pack (Cat. no. F10471): A 250 mM stock solution of water-soluble probenecid was prepared by adding 1 mL of Fluo-4 Direct™ calcium assay buffer to 77 mg vials containing probenecid (Component B for Cat. nos. F10471). 10 mL of Fluo-4 Direct™ calcium assay buffer and 200 μL of the 250 mM probenecid stock solution was added to one bottle of Fluo-4 Direct™ calcium reagent (Component A). This 2× Fluo-4 Direct™ calcium reagent loading solution was sufficient for two microplates. The solution was vortexed allowed to sit for 5 minutes (protected from light), to ensure that the reagent was completely dissolved. The reagent was prepared fresh each day
All of the compounds were dissolved and serially diluted in Fluo-4 Direct™ calcium assay buffer (without probenecid). […] Fluorescence was measured using the instrument settings appropriate for excitation at 494 nm and emission at 516 nm.
The data were analysed using Prism (GraphPad Software, USA) and IC50s calculated for each compound.

[1] = test system: bleomycin-induced lung fibrosis; assay: Idiopathic pulmonary fibrosis (IPF) model in rats (bleomycin); assay type: in vivo, SD rats; conditions: score, 28 days
Experimental: 60 adult SD rats (30 male, 30 female) were purchased from Zhejiang Experimental Animal Center, China. Animals were housed at between 21 and 26° C. and at between 40 and 70% relative humidity with free access to food and water.
The rats were anaesthetized and placed on an operating table in the supine position, to expose the trachea. Bleomycin (5 mg/kg, Bleomycin Hydrochloride for Injection, Haizheng Pfizer Pharmaceutical Co., Ltd.) and saline solution were injected into the trachea through the gap between the tracheal cartilage rings.
The sham-operation group was given an equal volume of normal saline instead of bleomycin. The rats were lifted vertically immediately after administration and were rotated to allow bleomycin to evenly disperse. […]
After 28 days of administration, rats were anesthetized by intraperitoneal injection of chloral hydrate and then sacrificed. […] The lung wet weight was weighed, and the lung coefficient was calculated (lung wet weight/rat weight×1000) and are shown in Table 18 below. […]
The fixed lung tissue was embedded in paraffin and sequential 4 μm sections were stained with haematoxylin-eosin (HE) and modified Masson's trichrome. Fibrotic lung injury was assessed morphologically by semiquantitative parameters. All morphological changes were scored according to the severity of damages. […] No lesion was scored as 0. […]

ammonia induced cough = assay: Antitussive experiment, ammonia induced cough method; assay type: in vivo, mice; conditions: 10 mg/kg intragastric
Experimental: 60 mice were randomly divided into 5 groups according to their body weight: CMC-Na negative control group, dextromethorphan hydrobromide positive control group and high, medium and low doses (of Compound A, Example 1) groups. Each group contained 12 mice, 6 males and 6 females.
The test drug was administered via atomization inhalation (0.15 mL/min) for 1 min, once daily for 5 days. The positive control drug was administered once daily by intragastric administration at 10 mg/kg for 5 days.
The mice were placed in an inverted beaker 1, 2, and 4 hours after the last drug administration (either Compound A or the positive control drug). 1 mL of aqueous ammonia (25.0 to 28.0%) was placed on top of a boiling water bath and was evaporated into the beaker. The mice were stimulated by ammonia vapor for a predetermined time of 63.1, 50.1, 39.8, 31.6, 25.1, 20.0, 15.9 or 12.6 seconds. The difference in the logarithm of two adjacent stimulating times was set at 0.1, and being 1.8, 1.7, 1.6, 1.5, 1.4, 1.3, 1.2 and 1.1. The mice were then quickly moved to a bell jar. The number of coughs within 1 minute was detected with a stethoscope. Typical coughs occurring three or more times in one minute are called ‘cough’ and those occurring less than three times in one minute are ‘cough free’.
The ammonia stimulation time for the next mouse was determined according to the principle of the sequential method, i.e. if the first mouse was ‘coughing’, the next mouse was stimulated for a shorter period of time. Conversely, if the first mouse was ‘coughless’, the next mouse was stimulated for a longer period of time.
The EDT50 was defined as the ammonia stimulating time at which half mice developed a “cough” and calculated by the equation: EDT50=lg^−1c/n (c equals the […], r is the number of animals in each stimulating time group, x is the logarithm of stimulation time and n was the number of animals in each group).
Where R1=(EDT50 in treatment group/EDT50 in control group)×100%, R>130% indicates an antitussive effect. R>150% indicates a strong antitussive effect.

[2] = test system: full thickness skin wound; assay: Acute wound model I; assay type: in vivo, C57BL/6 mice; conditions: lower dose, Day 4
Experimental: 6-8 weeks old male C57BL/6 mice were supplied by Changzhou Cvens Experimental Animal Co. Ltd. Prior to any experiments being conducted, mice were housed under standardized conditions (at a constant temperature or 22±2° C., with alternating 12 hour periods of light and darkness), and were fed on a standard mouse diet with water, for about a week.
General anesthesia was induced using intraperitoneal 3% chloral hydrate (Sinopharm Chemical Reagent Co., Ltd.; 1 mL/10 g of body weight). The hair on the back was shaved by a baby hair shaver and depilated with cream. The skin area was wiped and sterilized with 75% alcohol twice.
EMS skin biopsy punch (Electron Microscopy Sciences, P.O. Box 550, 1560 Industry Road, Hatfield, Pa. 19440) with an 18 mm diameter was used to make a round wound on the midline of the back. Full thickness skin was removed, and the depth reached the fascia. The wounds left open without suture.
Different drugs were administrated topically at 50 μL/wound, once daily from Day 0 to Day 7. The model group was given same amount of normal saline.
Compound B was obtained as a powder from GL Biochem, and was prepared as described in Example 2 above). Ala-Lys-Pro-Ser-Tyr-Hyp-Hyp-Thr-DOPA-Lys (Compound 2; SEQ ID No: 4) was obtained as a powder from GL Biochem, and was prepared essentially as described in Example 2 above, but without coupling montelukast at the end. […]

[3] = test system: full thickness skin wound; assay: Acute wound model II; assay type: in vivo, C57BL/6 mice; conditions: topical once daily Day 0 to Day 7
Experimental: A similar experiment with essentially the same protocol to that described in Example 6 above was carried out on 6 to 8 week-old male C57BL/6 mice, EMS skin biopsy punch with a 12 mm diameter was used to make two round wounds on the midline of the back. The two circles were tangential to each other and the skin between the circles was cut along the upper and lower tangents. Scissors were used to trim the wound. The wound was an oval shape. […] The model group was given same amount of normal saline. [table]

[4] = test system: xylene induced ear swelling; conditions: hydrogel 0.5 mg/g, 40 μL on right ear
Experimental: Essentially the same protocol to that described in Example 5 above was carried out on 15 healthy male BALB/c mice, using Compounds J (see Example 40 above) as test compound. The mice were randomly divided into 3 groups as described in Table 20 below, with 5 mice in each group.
All excipients were obtained from Sinopharm Chemical Reagent Co. Ltd. The gel was made up with water for injection.
Dexamethasone acetate cream (DEX cream; 5 mg of dexamethasone in 10 g of cream; Fuyuan Pharmaceutical Co. Ltd., Anhui, China) was used as a positive control. 40 μL of the various treatments drugs were applied to the right ear of each group.

## C[C@H](NC(=O)CC1(CS[C@H](CCc2ccccc2C(C)(C)O)c2cccc(/C=C/c3ccc4ccc(Cl)cc4n3)c2)CC1)C(=O)N[C@@H](CCCCN)C(=O)N1CCC[C@H]1C(=O)N[C@@H](CO)C(=O)N[C@@H](Cc1ccc(O)cc1)C(=O)N1C[C@H](O)C[C@H]1C(=O)N[C@H](C(=O)N[C@@H](Cc1ccc(O)cc1)C(=O)N1C[C@H](O)C[C@H]1C(=O)N[C@@H](CCCCN)C(=O)O)[C@@H](C)O [Compound G, Montelukast-Ala-Lys-Pro-Ser-Tyr-Hyp-Thr-Tyr-Hyp-Lys] (X2-AKPSY[Hyp]TY[Hyp]K-OH)
CysLTR1; repeat of Example 38
  IC50: 99.5 nM

## C=C(C)c1ccccc1CC[C@@H](SCC1(CC(=O)O)CC1)c1cccc(/C=C/c2ccc3ccc(Cl)cc3n2)c1 [montelukast styrene]
CysLTR1; Example 37
  IC50: 159 nM

## Cc1ccc(=O)n(-c2ccccc2)c1 [pirfenidone]
[1]; collagen deposition in pulmonary interstitium
  Masson evaluation Mean: 2.50
[1]; sum of degree of fibrosis and inflammation
  HE evaluation Mean: 5.50

## COc1ccc2c(c1)[C@]13CCCC[C@@H]1[C@H](C2)N(C)CC3 [positive, dextromethorphan hydrobromide]
Ammonia induced cough; 1 h after administration
  EDT50/s: 50.1 s
  R1/%: 241.7%
Ammonia induced cough; 2 h after administration
  EDT50/s: 44.7 s
  R1/%: 207.3%
Ammonia induced cough; 4 h after administration
  EDT50/s: 41.4 s
  R1/%: 184.8%

## Ala-Lys-Pro-Ser-Tyr-Hyp-Hyp-Thr-DOPA-Lys (AKPSY[Hyp][Hyp]T[Dopa]K; not fully specified; printed as Ala-Lys-Pro-Ser-Tyr-Hyp-Hyp-Thr-DOPA-Lys) [Compound 2]
[2]
  Hyp content in wound tissue: show effects at early stage

## Montelukast Styrene-Ala-Lys-Pro-pSer-Tyr-Hyp-Hyp-Thr-Tyr-Lys [Compound C]
[3]
  unhealed wound rate: comparable effects on promoting the wound healing

## Montelukast-Ala-Lys-Pro-Ser-Tyr-Hyp-Hyp-Thr-Tyr-Hyp-Lys [Compound J]
[4]
  edema caused by acute inflammation (ear swelling): very good effect on eliminating the edema caused by acute inflammation
